Test results reported in patent US6787550B1, “Indole derivatives and their use for the treatment of osteoporosis amongst other applications” (Nikem Research S.r.l., priority 1999, dated 2004).

Tested on: not given
Conditions: not given

Row | Structure (SMILES) | melting point
1 | CCCOc1cc(C(=O)NC2CC(C)(C)NC(C)(C)C2)ccc1-c1cc2cc(Cl)c(Cl)cc2[nH]1 [Example 4, 4-(5,6-Dichloro-1H-indol-2-yl)-3-propoxy-N-(2,2,6,6-tetramethylpiperidin-4-yl)benzamide] | > 250 °C
2 | CC1(C)CC(NC(=O)c2ccc(-c3cc4cc(Cl)c(Cl)cc4[nH]3)c(OCc3ccccc3)c2)CC(C)(C)N1 [Example 2, 4-(5,6-Dichloro-1H-indol-2-yl)-3-benzyloxy-N-(2,2,6,6-tetramethylpiperidin-4-yl)-benzamide] | 220 °C
3 | CC1(C)CC(NC(=O)c2ccc(-c3cc4cc(Cl)c(Cl)cc4[nH]3)c(O)c2)CC(C)(C)N1 [Example 3, 4-(5,6-Dichloro-1H-indol-2-yl)-3-hydroxy-N-(2,2,6,6-tetramethylpiperidin-4-yl)-benzamide] | > 270 °C

Tested on: osteoclast cultures
Conditions: literature background; cited from earlier work

Row | Structure (SMILES) | inhibition of bone resorption
4 | CO/C1=C\C(C)=C\[C@@H](C)[C@@H](O)[C@@H](C)C/C(C)=C/C=C/[C@H](OC)[C@@H]([C@@H](C)[C@@H](O)[C@H](C)[C@@]2(O)C[C@@H](O)[C@H](C)[C@@H](C(C)C)O2)OC1=O [bafilomycin A1] | able to inhibit bone resorption

Tested on: osteoclast proton pump
Conditions: avian osteoclast membrane vesicles; literature background; cited from earlier work

Row | Structure (SMILES) | inhibition of proton transport
5 | C[C@@H]1O[C@@H](O[C@H]2C[C@@H](O)[C@]3(CO)[C@H]4[C@H](O)C[C@]5(C)[C@@H](C6=CC(=O)OC6)CC[C@]5(O)[C@@H]4CC[C@]3(O)C2)[C@H](O)[C@H](O)[C@H]1O [ouabain] | not inhibited
6 | CO/C1=C\C(C)=C\[C@@H](C)[C@@H](O)[C@@H](C)C/C(C)=C/C=C/[C@H](OC)[C@@H]([C@@H](C)[C@@H](O)[C@H](C)[C@@]2(O)C[C@@H](O)[C@H](C)[C@@H](C(C)C)O2)OC1=O [bafilomycin A1] | inhibited
7 | CCN1C(=O)C=CC1=O [N-ethylmaleimide (NEM), N-ethylmaleimide] | inhibited
8 | Cc1nc2c(OCc3ccccc3)cccn2c1CC#N [SCH 28080] | not inhibited
9 | [Na+].[Na+].[Na+].[O]=[V]([O-])([O-])[O-] [sodium orthovanadate] | not inhibited
